Test results reported in paper PMC7180452, “Purine and Purine Isostere Derivatives of Ferrocene: An Evaluation of ADME, Antitumor and Electrochemical Properties” (Molecules, 2020).

Assays:
[1] = system: ductal pancreatic adenocarcinoma (CFPAC-1); assay: In vitro antiproliferative activity, CFPAC-1; format: cell-based, human; settings: CFPAC-1 cells
Description: (§1) Antiproliferative activity of compounds 11a−11c, 12a−12c, 13a−13c, 14a−14c, 15a−15c, 16a, 23a−23c, 24a−24c, 25a−25c, 34a−34c and 35a−35c was evaluated in vitro on four human tumor cell lines (American Type Culture Collection, Manassas, VA, USA): metastatic colorectal adenocarcinoma (SW620), ductal pancreatic adenocarcinoma (CFPAC-1), hepatocellular carcinoma (HepG2) and cervical carcinoma (HeLa) as well as normal skin fibroblasts (HFF).

[2] = system: hepatocellular carcinoma (HepG2); assay: In vitro antiproliferative activity, HepG2; format: cell-based, human; settings: HepG2 cells
Description: as §1

[3] = system: normal skin fibroblasts (HFF); assay: Cytotoxicity on non-tumor cells, HFF; format: cell-based, human
Description: as §1

[4] = Square-wave and cyclic voltammetry on glassy carbon electrode; format: physicochemical; settings: SWV, 0.5 mol/L NaClO4, pH 9, vs Ag/AgCl
From the text: The electrochemical properties of 6-chloro-7-deazapurine and 6-chloropurine derivatives of ferrocene 11c, 13a and 15b on a glassy carbon electrode were studied using cyclic (CV) and square-wave voltammetry (SWV) in aqueous electrolyte solutions over a wide pH range. The pH was varied from 2 to 10 in order to determine the effect of pH on the voltammograms (net peak currents and potentials). […] The pH of the solution affects the voltammetric response of this compound, i.e., the oxidation of evaluated compounds 11c, 13a and 15b is strongly dependent on it.
The forward (if) and backward (ib) components of the net response (Δi = if − ib) are shown as well (inset in Figure 2). […] The peak P1 occurs in all supporting electrolytes (i.e., at 2 ≤ pH ≤ 10), while the peak P2 is only observed at pH ≥ 9 (see Figure 1). The potential of peak P1 is pH-independent. Comparing to the literature data, peak P1 can be ascribed to the following charge transfer reaction [Fe^II(C5H5)2] ⇌ [Fe^III(C5H5)2]^+ + e^− [44, 48].
All chemicals used in the experiments were of the best grade commercially available (Sigma-Aldrich) and were used without further purification. Stock standard solutions of compounds 11c, 13a, 15b (c = 2.0 × 10^−3 mol/L) and 6-chloropurine (c = 1.2 × 10^−2 mol/L) were prepared from dry pure substances in dimethyl sulfoxide (DMSO, p.a.), purchased from Kemika (Zagreb, Croatia). Stock standard solution of ethynyl ferrocene (c = 1.1 × 10^−2 mol/L) was prepared from dry pure substance in ethanol (Kemika). For the supporting electrolyte, analytical grade NaClO4 (Kemika) was used. Water was deionized by the Millipore Milli-Q system to the resistivity ≥ 18 MΩcm. Voltammetric measurements were carried out using the computer-controlled electrochemical system „PGSTAT 101“ (Eco-Chemie, Utrecht, The Netherlands), controlled by the electrochemical software “NOVA 1.5”. A three-electrode system (BioLogic, Claix, France) with glassy carbon electrode (GCE) of 3 mm in diameter as a working electrode, Ag/AgCl (3 mol/L NaCl) as a reference electrode and a platinum wire as a counter electrode were used. All potentials were expressed versus Ag/AgCl (3 mol/L NaCl) reference electrode. The supporting electrolyte (0.5 mol/L NaClO4), adjusted to the desired pH value, was placed in the electrochemical cell and the required aliquot of the standard analyte solution was added. The solution in the electrochemical cell was degassed with high purity nitrogen for 10 min before measurement, and the nitrogen blanket was maintained thereafter. Before each run, the glassy carbon working electrode was polished with diamond suspension in spray (grain size 6 µm) and rinsed with ethanol and deionized water. All experiments were performed at room temperature. The presented results are reported as the mean value of three independent measurements.

[5] = Turbidimetric kinetic solubility assay; settings: for Kinetic Solubility: PBS, 1% DMSO, 37 °C, 2 h, estimated range; for Solubility classification: kinetic solubility, in words
Description: The turbidimetric solubility assay, which allows a rapid determination of the kinetic solubility of newly synthesized compounds using small amounts of their DMSO solutions, was used to assess the kinetic solubility [38].
The compounds’ DMSO stock solutions in concentration of 10 mM were serially diluted by factor 3.3×, 3×, 3.3× and 3× in DMSO. Prepared solutions were spiked into phosphate-buffered saline (PBS, 100 mM) to obtain final compounds’ concentrations of 100, 30, 10, 3 and 1 µM (3 µL of prepared dilutions were spiked to 297 µL of PBS, with final DMSO content of 1%, v/v). All compounds were tested in two replicas per concentration. Prepared solutions were incubated at 37 °C for 2 h with gentle shaking. Blank solutions were also prepared by spiking DMSO in PBS buffer (1% of DMSO, v/v). […] Compound/control samples are compared to the blank solution. […] Results were expressed as an estimated solubility range (lower and upper bound).

Structure (SMILES) | IC50 [1] | IC50 [2] | IC50 [3] | Oxidation peak P1 potential (ferrocene) [4] | Oxidation peak P2 potential (triazole) [4] | Kinetic Solubility [5] | Solubility classification [5]
CC([c-]1cccc1)n1cc(Cn2cnc3ncnc(Cl)c32)nn1.[Fe+2].c1cc[cH-]c1 (centres unmarked) [Compound 15b, 6-Chloro-7-[1-(1-ferrocenyl-1-methylmethyl-1,2,3-triazol-4-yl)methyl]-7H-purine] | 28.6 ± 2.68 µM | 37.1 ± 1.84 µM | 0.88 ± 1.06 µM | ~ 0.4 V | ~ 1.1 V | >100 µM | high solubility
Clc1ncnc2c1ncn2Cc1cn(C[c-]2cccc2)nn1.[Fe+2].c1cc[cH-]c1 [Compound 13a, 6-Chloro-9-[1-(1-ferrocenymethyl-1,2,3-triazol-4-yl)methyl]-9H-purine] | 22.8 ± 4.31 µM | 19.9 ± 5.12 µM | 3.98 ± 0.17 µM | ~ 0.4 V | ~ 1.1 V | >100 µM | high solubility
Clc1ncnc2c1ccn2Cc1cn(-[c-]2cccc2)nn1.[Fe+2].c1cc[cH-]c1 [Compound 11c, 4-Chloro-7-[1-(1-ferrocenyl-1,2,3-triazol-1-yl)methyl]-7H-pyrrolo[2,3-d]pyrimidine] | 35 ± 5.44 µM | 31.9 ± 4.32 µM | 5.89 ± 1.88 µM | ~ 0.4 V | ~ 1.1 V | 3 to 10 µM | 
